The values that follow come from PubChem BioAssay (NCI).

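Interpolation was linear, between the two tested concentrations surrounding the appropriate level; five concentrations were tested over 48 hours in 96-well plates. TGI: total growth inhibition.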 A value given as a limit tells only on which side of the number the result lay.

Common to all, as to test: inhibition of tumour cell growth, NCI panel, 48 h
The test system of experiment [1] is PC-3 prostate.
The test system of experiment [2] is SF-539 CNS.
The test system of experiment [3] is LOX IMVI melanoma.
In experiment [4] the test system is OVCAR-5 ovarian.
The subject of experiment [5] is HCC-2998 colon.
For experiment [6], the system named is SK-MEL-2 melanoma.
For experiment [7], the system named is MCF7 breast.
The subject of experiment [8] is OVCAR-4 ovarian.
The subject of experiment [9] is OVCAR-8 ovarian.
The subject of experiment [10] is DU-145 prostate.

Take `O=C1[C@H](O)[C@@H]2C(O)O[C@H]3[C@@H]2N1C[C@H]3[Si](c1ccccc1)(c1ccccc1)c1ccccc1` (stereo not given in full): the TGI in [1], in experiment [2], in [3], in experiment [4], in experiment [5] and in experiment [6] was over 100 µM in each case. The TGI in [7], in experiment [8], in [9] and in experiment [10] was over 100 µM throughout.

Regarding `OC1[C@@H]2[C@@H](O)CCCN2C[C@@H](O)[C@H]1O` (stereo not given in full), the TGI in experiment [1], in [2], in [3], in [4], in experiment [5] and in experiment [6] was over 100 µM in each case. For the same compound, the TGI in experiment [7], in [8], in experiment [9] and in experiment [10] was over 100 µM in each case.

On to `[N-]=[N+]=Nc1c(Cc2ccccc2)c(Cl)nc2ccccc12`, for which the TGI was over 100 µM in experiment [1]; 41.3 µM in experiment [2]; 38.5 µM in [3]; over 100 µM in experiment [4]; over 100 µM in [5]; 33.4 µM in [6]. Moreover, the TGI is 58.8 µM in experiment [7], over 100 µM in experiment [8], 46.5 µM in [9] and over 100 µM in experiment [10].

With `Nc1n(CC(=O)c2ccccc2)nc2sc(-c3ccccc3)n[n+]12`, the TGI in [1] is 78.8 µM; in [2] it was 25.3 µM; in experiment [3], over 100 µM; in experiment [4], over 100 µM; in [5] it was 25 µM; in experiment [6] it was over 100 µM. Besides, the TGI was over 100 µM in experiment [7], over 100 µM in experiment [8], 38.8 µM in [9] and 87.7 µM in experiment [10].

For the compound `COc1cccc(N2C(=O)CSC2c2cccc(Oc3ccccc3)c2)c1` (stereo not given), the TGI is over 100 µM in [1]; 15.9 µM in experiment [2]; 27.2 µM in experiment [3]; over 100 µM in experiment [4]; 7.23 µM in experiment [5]; 16.3 µM in experiment [6]. Besides, the TGI is 7.13 µM in experiment [7], 87.5 µM in experiment [8], 50.7 µM in [9] and over 100 µM in experiment [10].

Consider `O=c1[nH]c2nc3ccccc3c(=O)n2/c1=C/c1ccc(Cl)cc1`, for which the TGI in [1] was over 100 µM; in [2] it was 47.7 µM; in experiment [3], over 100 µM; in experiment [4], over 100 µM; in experiment [5], 65.3 µM; in experiment [6], over 100 µM. The TGI in experiment [7] was over 100 µM; in experiment [8] it was over 100 µM; in [9] it was 58.6 µM; in experiment [10], over 100 µM.

In the case of `O=C(Nc1ccccc1)N(C1=NCC(CI)S1)c1ccc(F)c(F)c1` (stereo not given), the TGI in experiment [1] is over 100 µM; in experiment [2], over 100 µM; in experiment [3], 34 µM; in [4], over 100 µM; in experiment [5], over 100 µM; in experiment [6], 60.5 µM. The TGI in experiment [7], in experiment [8], in experiment [9] and in [10] was over 100 µM each time.

On to `Cn1c(=O)c2c(nc3n(CC(O)CCl)c(=O)ccn23)n(C)c1=O` (stereo not given), for which the TGI in [1], in [2], in experiment [3], in experiment [4], in experiment [5] and in experiment [6] was over 100 µM throughout. Also, the TGI in experiment [7], in experiment [8], in experiment [9] and in experiment [10] was over 100 µM throughout.

Take `CCOC(=O)c1c(C)n(Cc2ccc(Cl)cc2Cl)c2c1cc(O)c1[nH]c3c(c12)CCCC3`: the TGI in [1] is 40.9 µM; in experiment [2], 56.9 µM; in experiment [3], over 100 µM; in experiment [4] it was over 100 µM; in [5], 63 µM; in experiment [6], 60.9 µM. Further, the TGI in experiment [7] was 52 µM; in [8], 41.7 µM; in experiment [9], 53.5 µM; in experiment [10] it was over 100 µM.

In the case of `O=C(Nc1ccccc1F)c1cc2ccc(O)cc2oc1=Nc1cccc(F)c1`, the TGI in experiment [1] is 48 µM; in [2], 42.7 µM; in [3], 22.9 µM; in experiment [4] it was 71 µM; in [5] it was 33.8 µM; in [6], 62.6 µM. Besides, the TGI in experiment [7] was found to be 95.1 µM; in experiment [8] it was 53.6 µM; in [9], 23.8 µM; in [10] it was 40.5 µM.

As for `O=c1[nH]cc(NCCCl)c(=O)[nH]1`, the TGI in [1], in [2], in [3], in [4], in [5] and in [6] was over 100 µM in each case. In addition, the TGI in [7], in [8], in experiment [9] and in [10] was over 100 µM each time.
